Experimental data as given in article PMC5512002 (Cellular signalling, 2017).
pIC50: −log10 of the molar value.

Biological target: T1, GPR55 (Rattus norvegicus, UniProt F1MAK4)
T1 sequence (F1MAK4 1-319): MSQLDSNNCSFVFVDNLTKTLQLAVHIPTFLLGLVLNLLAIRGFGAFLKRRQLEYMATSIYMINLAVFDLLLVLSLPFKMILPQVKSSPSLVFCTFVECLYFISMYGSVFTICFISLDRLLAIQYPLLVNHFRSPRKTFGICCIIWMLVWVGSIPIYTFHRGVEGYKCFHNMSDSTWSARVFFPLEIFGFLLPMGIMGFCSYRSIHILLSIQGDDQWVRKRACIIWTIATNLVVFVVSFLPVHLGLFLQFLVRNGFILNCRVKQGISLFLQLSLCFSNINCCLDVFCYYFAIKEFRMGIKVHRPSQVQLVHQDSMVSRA
Test: inhibition of uptake of fluorescent GPR55 ligand T1117 in live C6 cells
Type: cell-based

Compound `COc1ccc(C[C@@H](C)NC[C@H](O)c2cc(O)cc(O)c2)c2ccccc12` [(R,R′)-MNF] has a pIC50 of 6.49.
